Tests used:
[1] = biological target: T1, BK potassium channel, cloned hSlo (α-hSlo and β-bSlo) in CHO cells (Homo sapiens, UniProt Q12791); assay: Em-Assay: membrane potential with voltage sensitive dye DiBAC(4)3, fluorescence plate reader; type: cell-based; details: compound 50 μM; NS004 25 or 50 μM; hSlo transfected CHO cells; change in DiBAC(4)3 fluorescence intensity
T1 construct: expressed in transfected cells; host or cells: CHO cells, permanently transfected
Text: The large conductance, voltage-dependent and Ca^2+-activated potassium channel BK is a potassium selective ion channel and belongs to the subfamily of KCa channels. Four BK alpha-subunits form a functional channel that can be regulated by intracellular Ca^2+ concentration, membrane voltage, and other mechanisms like phosphorylation states or beta subunits. To test the biological activity of the compounds, we applied two different techniques, a fluorescence based assay using a voltage sensitive dye (Em-Assay) as well as exploiting electrophysiological methods.
CHO cells permanently transfected with cloned hSlo (α-hSlo and β-bSlo), yielding typical BK potassium currents (Zhou et al., Pflügers Arch., 436: 725-734 (1998), were used for the evaluation of compound activity. Activation or inhibition of BK channels in these cells leads to a change of the electrochemical gradient causing a hyperpolarized or depolarised membrane potential, respectively.
To determine changes in the membrane potential of the cells we used the voltage sensitive dye DiBAC(4)3 (Molecular Probes) in a kinetic assay system using a fluorescent plate reader (Manning and Sontheimer, J. Neurosci, Meth., 91: 73-81 (1999). The anionic bis-oxonol DiBAC(4)3 is a voltage sensitive dye which partitions from the extracellular environment into the cell where it reversibly binds to intracellular proteins, a kinetic process depending on the membrane potential of the cell. At depolarised potentials (i.e. at a reduced K^+ efflux due to blocked K^+ channels) the dye accumulates in the cell leading to an increased fluorescence intensity, due to its increased fluorescence if bound to cellular proteins. At hyperpolarized potentials (i.e. at an increased K^+ efflux due to the opening of K^+ channels), the dye partitions out of the cell causing a decreased fluorescence intensity.
hSlo transfected CHO cells where maintained in DMEM supplemented with 10% FCS, 250 μg/ml Geneticin, 100 μg/ml Hygromycin, 1×HT-Supplement, and 1×Non-essential Amino Acids and cultured in a humidified CO2 incubator. After trypsination, cells where plated with a density of 5×10^4 cells per well on a clear 96-well plate and incubated for 24 h. Cells where washed once with PBS, once with PBS containing 20 mM HEPES (adjusted to pH 7.4 with NaOH) and 2 μM DIBAC(4)3 (DPBS-DiBAC solution). 180 μl of the dPBS-DiBAC solution was then added to the cells and the plate incubated for 30-60 min at 37° C. During this time the dye could partition into the cells and reach a certain steady-state distribution, depending on the resting membrane potential. Test and reference compounds were stored as DMSO stock solutions and diluted in dPBS-DiBAC solution to the desired concentration.
Fluorescence intensity (Ex.: 485 nm/Em.: 520 nm) of each well was detected in the plate reader (Fluostar, BMG) every 60 seconds. After recording the baseline fluorescence for 7 minutes, 20 μl test—and reference compounds were added and the fluorescence intensity was detected for additional 15 minutes. Background was subtracted, data values were normalized and expressed as a change in fluorescence intensity against time. The change in fluorescence intensity caused by the test compounds was evaluated, compared to the effect of the reference compound NS004, and the ratio was determined (see Table I).

[2] = biological target: BK currents, cloned α-hSlo and β-bSlo in CHO cells (Homo sapiens, UniProt Q12791); assay: Electrophysiological studies: whole-cell patch-clamp of BK currents; type: cell-based; details: compound 20 μM, steady-state BK current, free internal Ca2+ 1×10^−6M
Experimental: Electrophysiological Studies:
CHO cells permanently transfected with cloned α-hSlo and β-bSlo were maintained as described above and used for electrophysiological characterisation, The whole-cell configuration of the patch-clamp technique was used to determine the effect of modulators on BK currents in these cells. The cell line expressing functional BK currents (Zhou et al., Pflügers Arch. 436, p.725 (1998)) were plated onto glass cover slips with a density of 1-5×10^4 cells/cover slip, incubated (37° C., 5% CO2) and used for patch-clamp experiments within 24-48 h. Cells were bathed in mammalian ringer solutions containing (in mM): 160NaCl, 4.5KCl, 2CaCl2, 1MgCl2, 10 HEPES, adjusted to pH 7.4, 290-310 mOsm. The internal pipette solution contained (in mM): 160KCl, 2CaCl2, 1MgCl2, 10 HEPES, EGTA was added to reach a free [Ca^2+]internal=1×10^−6M, adjusted to pH 7.2, 290-310 mOsm. Borosilicate pipettes with a resistance of 2-3 MΩ were filled with the internal solution and mounted on an appropriate holder. Prior to measurements a recording chamber was mounted onto the cell-plated cover slips and the cells were perfused with a simple syringe driven perfusion system. Compounds were added in the final concentration ([…]) to the bath solution using the same system. An EPC-9 patch-clamp amplifier with Pulse and PulseFit software (HEKA) was used to record and analyze currents.
After addition of the compounds to the bath solution their modulating effect was determined by the increase or decrease of specific BK currents after reaching steady-state relative to the BK current before application of drugs (see Table II).

Chain of BK currents, cloned α-hSlo and β-bSlo in CHO cells (Q12791 whole entry): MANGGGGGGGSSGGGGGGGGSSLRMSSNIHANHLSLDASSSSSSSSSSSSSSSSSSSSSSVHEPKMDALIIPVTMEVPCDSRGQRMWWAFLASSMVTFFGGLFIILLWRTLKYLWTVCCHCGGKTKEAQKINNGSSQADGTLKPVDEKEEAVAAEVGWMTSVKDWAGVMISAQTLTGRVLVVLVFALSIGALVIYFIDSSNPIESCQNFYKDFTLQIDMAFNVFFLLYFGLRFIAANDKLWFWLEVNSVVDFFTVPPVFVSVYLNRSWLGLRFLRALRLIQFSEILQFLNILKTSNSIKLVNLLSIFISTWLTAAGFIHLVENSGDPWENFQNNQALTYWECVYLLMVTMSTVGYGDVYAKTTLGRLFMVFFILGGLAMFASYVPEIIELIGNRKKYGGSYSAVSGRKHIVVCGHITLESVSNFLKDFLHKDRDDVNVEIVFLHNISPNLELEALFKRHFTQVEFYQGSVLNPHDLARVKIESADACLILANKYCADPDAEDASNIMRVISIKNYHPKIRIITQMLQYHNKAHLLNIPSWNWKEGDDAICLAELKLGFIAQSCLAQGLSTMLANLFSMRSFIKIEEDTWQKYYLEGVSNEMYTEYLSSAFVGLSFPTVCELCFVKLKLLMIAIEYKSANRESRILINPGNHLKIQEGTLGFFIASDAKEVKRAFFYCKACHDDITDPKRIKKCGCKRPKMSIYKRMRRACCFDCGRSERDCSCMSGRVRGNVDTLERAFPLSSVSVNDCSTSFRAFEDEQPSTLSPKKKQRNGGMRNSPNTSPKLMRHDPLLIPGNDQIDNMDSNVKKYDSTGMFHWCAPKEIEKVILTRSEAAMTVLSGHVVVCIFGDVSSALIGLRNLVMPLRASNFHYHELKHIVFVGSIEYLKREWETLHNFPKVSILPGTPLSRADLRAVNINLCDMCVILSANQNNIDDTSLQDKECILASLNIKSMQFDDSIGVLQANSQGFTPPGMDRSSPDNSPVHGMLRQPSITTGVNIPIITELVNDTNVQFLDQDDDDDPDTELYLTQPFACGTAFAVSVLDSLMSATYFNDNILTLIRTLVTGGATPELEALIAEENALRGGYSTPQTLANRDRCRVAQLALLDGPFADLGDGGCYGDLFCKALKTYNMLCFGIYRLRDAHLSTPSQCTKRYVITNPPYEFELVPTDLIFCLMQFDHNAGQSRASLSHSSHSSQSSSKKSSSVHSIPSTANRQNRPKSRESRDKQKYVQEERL
Chain of BK currents, cloned α-hSlo and β-bSlo in CHO cells (Q28067 2-191 partner): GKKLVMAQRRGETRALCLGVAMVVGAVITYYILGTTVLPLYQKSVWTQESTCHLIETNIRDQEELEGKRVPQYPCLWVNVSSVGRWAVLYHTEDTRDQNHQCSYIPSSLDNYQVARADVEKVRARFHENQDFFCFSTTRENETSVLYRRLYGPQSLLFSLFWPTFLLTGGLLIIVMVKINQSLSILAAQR
T1 sequence (Q12791 1-1178 isoform Q12791-5): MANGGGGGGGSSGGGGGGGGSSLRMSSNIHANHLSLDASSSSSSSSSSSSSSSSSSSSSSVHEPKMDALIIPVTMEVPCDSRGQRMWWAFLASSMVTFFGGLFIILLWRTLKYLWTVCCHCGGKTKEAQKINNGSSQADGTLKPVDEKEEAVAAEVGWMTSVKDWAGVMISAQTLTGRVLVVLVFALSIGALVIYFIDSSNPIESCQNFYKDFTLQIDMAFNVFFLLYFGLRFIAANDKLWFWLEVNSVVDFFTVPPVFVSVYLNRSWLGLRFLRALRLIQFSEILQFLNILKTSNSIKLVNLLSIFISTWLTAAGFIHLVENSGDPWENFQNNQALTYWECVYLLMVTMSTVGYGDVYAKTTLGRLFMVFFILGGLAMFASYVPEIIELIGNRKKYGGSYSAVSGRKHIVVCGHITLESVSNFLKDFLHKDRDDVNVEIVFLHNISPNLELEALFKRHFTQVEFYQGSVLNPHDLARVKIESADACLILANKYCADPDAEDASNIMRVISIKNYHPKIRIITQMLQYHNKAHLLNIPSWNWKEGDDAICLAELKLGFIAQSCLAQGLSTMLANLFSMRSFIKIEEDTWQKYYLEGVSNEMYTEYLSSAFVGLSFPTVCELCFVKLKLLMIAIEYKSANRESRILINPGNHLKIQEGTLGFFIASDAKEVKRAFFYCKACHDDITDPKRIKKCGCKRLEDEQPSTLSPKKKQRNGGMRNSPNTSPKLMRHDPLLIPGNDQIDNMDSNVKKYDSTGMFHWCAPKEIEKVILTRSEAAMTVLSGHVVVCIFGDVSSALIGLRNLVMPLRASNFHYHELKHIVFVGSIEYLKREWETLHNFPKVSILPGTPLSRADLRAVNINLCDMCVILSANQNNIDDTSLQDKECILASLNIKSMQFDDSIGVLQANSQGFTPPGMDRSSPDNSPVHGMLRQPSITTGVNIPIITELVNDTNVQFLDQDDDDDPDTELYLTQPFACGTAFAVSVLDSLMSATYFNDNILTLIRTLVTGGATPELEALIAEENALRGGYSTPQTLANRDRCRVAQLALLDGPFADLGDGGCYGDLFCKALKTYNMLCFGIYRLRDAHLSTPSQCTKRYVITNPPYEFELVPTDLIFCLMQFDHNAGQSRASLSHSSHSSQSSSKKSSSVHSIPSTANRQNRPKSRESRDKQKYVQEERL
T1 sequence (Q28067 2-191 partner limits assumed): as the sequence (Q28067 2-191 partner) above

SMILES	Em effect: ratio of the compound effect compared to the maximal effect of NS004 [1]	Effect: ratio of current increase after application of compound relative to the control current before compound application [2]
FC(F)(F)c1cc(NCc2ccc(Br)cc2)cc(NCc2ccc3ccccc3c2)c1 [Compound 6, N-(4-Bromobenzyl)-N′-naphthalen-2-ylmethyl-5-trifluoromethylbenzene-1,3-diamine]	+++ (>1.5 = +++)	++ (>1, 1-1.2 = ++)
FC(F)(F)c1cc(NCc2cccc(Cl)c2)cc(NCc2ccc3ccccc3c2)c1 [Compound 7, N-(3-Chlorobenzyl)-N′-naphthalen-2-ylmethyl-5-trifluoromethyl-benzene-1,3-diamine]	+++ (>1.5 = +++)	+ (1-1.1 = +)
Clc1cccc(CNc2cccc(NCc3cccc(Cl)c3)c2)c1 [Compound 11]	+ (0-1 = +)	+ (1-1.1 = +)
Brc1ccc(CNc2cccc(NCc3ccc(Br)cc3)c2)cc1 [Compound 12]	+ (0-1 = +)	+ (1-1.1 = +)
COc1cccc(CNc2cc(NCc3cccc(Cl)c3)cc(C(F)(F)F)c2)c1 [Compound 82]	+ (0-1 = +)	–
COc1cccc(CNc2cc(NCc3ccc(C(F)(F)F)cc3)cc(C(F)(F)F)c2)c1 [Compound 83, N-(3-methoxybenzyl)-5-tri-fluoromethyl-N′-(4-tri-fluoromethylbenzyl)-benzene-1,3-diamine]	+ (0-1 = +)	–
CC(C)(C)c1ccc(CNc2cc(NCc3ccc(C(F)(F)F)cc3)cc(C(F)(F)F)c2)cc1 [Compound 84]	+ (0-1 = +)	–
O=[N+]([O-])c1ccc(CNc2cc(NCc3ccccc3C(F)(F)F)cc(C(F)(F)F)c2)o1 [Compound 85]	+ (0-1 = +)	–
Cc1cc(NCc2ccc(S(C)(=O)=O)cc2)ccc1NCc1ccc(S(C)(=O)=O)cc1 [Compound 86]	+ (0-1 = +)	–
Cc1cc(NCc2ccc(-c3csnn3)cc2)ccc1NCc1ccc(-c2csnn2)cc1 [Compound 87]	+ (0-1 = +)	–
Clc1cc(NCc2ccc(-c3csnn3)cc2)ccc1NCc1ccc(-c2csnn2)cc1 [Compound 88]	+ (0-1 = +)	–
Clc1cc(NCc2ccc(-c3csnn3)cc2)c(Cl)cc1NCc1ccc(-c2csnn2)cc1 [Compound 89]	+ (0-1 = +)	–
COc1cccc(CNc2cc(Cl)c(NCc3cccc(OC)c3)c(Cl)c2)c1 [Compound 90, 2,6-dichloro-N,N′-bis-(3-methoxy-benzyl)-benzene-1,4-diamine]	+ (0-1 = +)	–
Clc1cc(NCc2ccc(-c3csnn3)cc2)cc(Cl)c1NCc1ccc(-c2csnn2)cc1 [Compound 91]	+ (0-1 = +)	–
Fc1cccc(Cl)c1CNc1ccc(NCc2c(F)cccc2Cl)cc1 [Compound 92]	+ (0-1 = +)	–
Cc1cc(NCc2c(F)cccc2Cl)ccc1NCc1c(F)cccc1Cl [Compound 93]	+ (0-1 = +)	–
Fc1cccc(Cl)c1CNc1ccc(NCc2c(F)cccc2Cl)c(Cl)c1 [Compound 94]	+ (0-1 = +)	–
Clc1ccccc1CNc1ccc(NCc2ccccc2Cl)cc1 [Compound 95, N,N′-bis-(2-chlorobenzyl)-benzene-1,4-diamine]	+ (0-1 = +)	–
Clc1ccccc1CNc1ccc(NCc2ccccc2Cl)c(Cl)c1 [Compound 96]	+ (0-1 = +)	–
FC(F)(F)c1ccccc1CNc1ccc(NCc2ccccc2C(F)(F)F)cc1 [Compound 97]	+ (0-1 = +)	–
Fc1cc(F)cc(CNc2ccc(NCc3cc(F)cc(F)c3)cc2)c1 [Compound 98, N,N′-bis-(3,5-difluorobenzyl)-benzene-1,4-diamine]	+ (0-1 = +)	–
Fc1ccc(CNc2ccc(NCc3ccc(F)cc3F)cc2)c(F)c1 [Compound 99]	+ (0-1 = +)	–
Fc1cccc(CNc2ccc(NCc3cccc(F)c3)cc2)c1 [Compound 100, N,N′-bis(3-fluorobenzyl)-benzene-1,4-diamine]	+ (0-1 = +)	–
Cc1cc(NCc2ccc(C(F)(F)F)cc2)ccc1NCc1ccc(C(F)(F)F)cc1 [Compound 101, 2-methyl-N1,N4-bis-(4-trifluoromethylbenzyl)-benzene-1,4-diamine]	+ (0-1 = +)	–
Cc1cc(NCc2ccc(F)cc2F)ccc1NCc1ccc(F)cc1F [Compound 102, N^1,N^4-bis-(2,4-difluorobenzyl)-2-methylbenzene-1,4-diamine]	+ (0-1 = +)	–
Cc1cc(NCc2cccc(F)c2)ccc1NCc1cccc(F)c1 [Compound 103, N^1,N^4-bis-(3-fluorobenzyl)-2-methylbenzene-1,4-diamnine]	+ (0-1 = +)	–
FC(F)(F)c1ccccc1CNc1ccc(NCc2ccccc2C(F)(F)F)c(Cl)c1 [Compound 104, 2-chloro-N^1,N^4-bis-(2-trifluoromethylbenzyl)-benzene-1,4-diamine]	+ (0-1 = +)	–
FC(F)(F)c1ccc(CNc2ccc(NCc3ccc(C(F)(F)F)cc3)c(Cl)c2)cc1 [Compound 105]	+ (0-1 = +)	–
Fc1ccc(CNc2ccc(NCc3ccc(F)cc3F)c(Cl)c2)c(F)c1 [Compound 106]	+ (0-1 = +)	–
Fc1cccc(CNc2ccc(NCc3cccc(F)c3)c(Cl)c2)c1 [Compound 107]	+ (0-1 = +)	–
